Consider 1 compound from article PMC12467033, “Exploring the Inhibitory Potential of Six Porphyrin Compounds Against α-Amylase and α-Glucosidase Linked to Diabetes” (Biomolecules, 2025).

“And” between values parts separate entries of the source, which are not always exact repeats. Equal values may be shown once. Read-outs that look alike come from different tables or passages of the source.

In data set [1] the target is T1, α-amylase (Sus scrofa, UniProt P00690).
T1 sequence (P00690 16-511): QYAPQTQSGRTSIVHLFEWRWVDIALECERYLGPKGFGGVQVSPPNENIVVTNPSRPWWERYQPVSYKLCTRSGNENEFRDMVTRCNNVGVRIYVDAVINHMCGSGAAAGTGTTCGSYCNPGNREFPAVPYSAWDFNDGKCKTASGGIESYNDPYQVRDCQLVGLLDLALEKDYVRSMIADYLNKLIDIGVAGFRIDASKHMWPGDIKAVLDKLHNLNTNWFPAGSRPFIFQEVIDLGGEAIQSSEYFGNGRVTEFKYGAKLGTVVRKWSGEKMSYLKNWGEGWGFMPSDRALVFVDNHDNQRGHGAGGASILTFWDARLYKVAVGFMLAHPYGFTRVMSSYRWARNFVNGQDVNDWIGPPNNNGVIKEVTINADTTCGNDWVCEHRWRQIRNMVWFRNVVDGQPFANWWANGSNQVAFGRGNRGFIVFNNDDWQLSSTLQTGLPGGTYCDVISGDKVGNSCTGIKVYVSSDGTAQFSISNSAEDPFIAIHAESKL
Kind of data set: α-Amylase inhibitory activity assay (Gal-G2-α-CNP substrate). It is filed as biochemical. The settings on record: 37 °C, pH 6.8. The method, then: The inhibitory activity detection process was slightly modified, with reference as the base method from the literature. […] After thorough mixing, the samples were pre-incubated at 37 °C for 10 min. Subsequently, 100 μL of 5 mmol/L Gal-G2-α-CNP substrate was added to each sample. Following a 3 min reaction period, the absorbance of the solutions at 405 nm was measured using a microplate reader. The inhibition rate (%) was calculated based on the absorbance readings according to Formula (1).(1) inhibition rate%=(1−(A1−A2)/(A3−A4))×100
In the formula, A1 represents the sample group; A2 represents the sample control group (where the enzyme was replaced with phosphate buffer); A3 represents the blank control group; and A4 represents the reagent blank control group (containing blank sample solution and phosphate buffer).
(§1) Using the enzyme inhibition rate as the y-axis and the inhibitor concentration as the x-axis, the IC50 value was calculated through linear regression fitting with GraphPad Prism software (5.0).

Data set [2] has as its target T2, α-glucosidase (Saccharomyces cerevisiae, UniProt P53341). In words: α-Glucosidase inhibitory activity assay (pNPG substrate). In kind it is biochemical. The settings on record: 37 °C. As for the experimental part:
The experimental groups were supplemented with different concentrations of porphyrin compounds, followed by the addition of 100 μL of 5 mmol/L pNPG. After thorough mixing, the samples were pre-incubated at 37 °C for 10 min. Subsequently, the reaction was terminated by adding 0.1 mol/L of sodium carbonate (Na2CO3) solution. Following a 3 min reaction period, the absorbance of the solutions at 405 nm was measured using a microplate reader. The inhibition rate (%) was subsequently calculated using Formula (1).
as §1

Data set [3] has as its target T2, α-glucosidase. In kind it is biochemical. The text has this: In the experiment, the concentration of the fixed substrate Gal-G2-α-CNP/pNPG solution was 5 mmol/L, and the concentrations of the two enzymes (100, 200, 300, 400 U/L) were used to determine the effect of different concentrations of porphyrins on enzyme activity. The concentration of the enzyme was 200 U/L, and the concentration of the substrate Gal-G2-α-CNP/pNPG solution (2.5, 5, 7.5, 10 mmol/L) was used to determine the effect of different concentrations of porphyrins on the enzyme-catalyzed substrate activity.
Upon identifying the type of inhibition, the kinetic equations vary for different inhibition types.
In the formula, v, Vmax, Km, Ki, and Kis represent the reaction rate, maximum reaction rate, Michaelis constant, and free enzyme inhibition constant, respectively, and the binding enzyme inhibition constant. [S] denotes the substrate concentration. [I] denotes the inhibitor concentration.

Data set [4] concerns the target T1, α-amylase. In words: In vitro stability study (temperature, pH), inhibition rate against α-amylase. In kind it is physicochemical. The settings on record: water bath 30–100 °C, 20 min. As for the experimental part: (§2) Samples of a certain mass concentration were subjected to a water bath at different temperatures (30, 40, 50, 60, 70, 80, 90, 100 °C) for 20 min and treated under different pH conditions (2.0, 3.0, 4.0, 5.0, 6.0, 7.0, 8.0, 9.0, and 10.0) for 20 min to determine the effect of temperature and pH on the stability of the two enzymes.

The target in data set [5] is T2, α-glucosidase. In words: In vitro stability study (temperature, pH), inhibition rate against α-glucosidase. It is filed as physicochemical. The settings on record: water bath 30–100 °C, 20 min. The method, then: as §2
Data set [6] has as its target T1, α-amylase. In words: Three-dimensional fluorescence spectroscopy of α-amylase complexes. The settings on record: 298 K; TAPP 2.5, THPP 10, TCPP 10, Fe–TCPP 12.5, Ni–TCPP 17.5, Cu–TCPP 10 μg/mL.
Experimental: At 298 K, with excitation wavelengths ranging from 200 to 600 nm (2 nm increments) and emission wavelengths from 200 to 600 nm, the influence of small molecules on enzyme conformation was assessed by examining peaks in 3D fluorescence spectra [41].
For another data set, the system named is HepG2 cells. In words: MTT cytotoxicity assay. It is filed as cell-based, human. The settings on record: 24 h. As for the experimental part: The cytotoxicity of six porphyrin compounds against human hepatocellular carcinoma HepG2 cells was evaluated using the MTT assay. HepG2 cells were seeded into 96-well plates at a density of 5000 cells per well and cultured for 24 h at 37 °C in a 5% CO2 incubator. Then, 100 µL of sample solutions at various concentrations (50, 100, and 200 µg/mL) was added to the experimental wells, with blank control wells and solvent control wells also included. The cells were further incubated for 24 h. After incubation, 10 µL of MTT solution (5 mg/mL) was added to each well, and the plates were incubated for another 4 h. Subsequently, 100 µL of Formazan solubilization solution was added to each well, followed by gentle mixing. The plates were returned to the incubator and maintained until complete dissolution of Formazan crystals was observed under a microscope. The absorbance at 570 nm was measured using a microplate reader (Meigu Molecular Instrument Company, Shanghai, China), and the survival rate of HepG2 cells was calculated.(12) Cell viability=As-Ab/Ac-Ab×100%
In the formula, As represents the absorbance of the sample well, Ac denotes the absorbance of the blank control well (without the drug), and Ab refers to the absorbance of the solvent control well (devoid of both cells and the drug).
A general note: Formazan colour is commonly taken as a measure of viable cells.

T2 sequence (P53341 whole entry): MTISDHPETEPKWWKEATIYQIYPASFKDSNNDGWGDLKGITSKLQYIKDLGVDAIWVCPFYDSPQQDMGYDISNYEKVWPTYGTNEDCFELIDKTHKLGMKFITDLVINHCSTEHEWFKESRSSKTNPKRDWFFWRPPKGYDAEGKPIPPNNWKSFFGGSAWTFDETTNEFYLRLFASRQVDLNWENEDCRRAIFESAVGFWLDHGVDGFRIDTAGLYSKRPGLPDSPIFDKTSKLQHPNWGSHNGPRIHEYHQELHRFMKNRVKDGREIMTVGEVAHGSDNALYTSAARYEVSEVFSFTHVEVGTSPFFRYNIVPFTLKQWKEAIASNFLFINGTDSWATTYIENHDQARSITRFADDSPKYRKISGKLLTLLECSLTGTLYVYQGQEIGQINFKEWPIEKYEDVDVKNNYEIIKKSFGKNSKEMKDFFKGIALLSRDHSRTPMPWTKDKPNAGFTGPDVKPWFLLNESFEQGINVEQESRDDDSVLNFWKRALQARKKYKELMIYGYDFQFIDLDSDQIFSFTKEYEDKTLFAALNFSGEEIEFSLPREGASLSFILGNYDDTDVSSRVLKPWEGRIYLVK

In the case of `O=C(O)c1ccc(-c2c3nc(c(-c4ccc(C(=O)O)cc4)c4ccc([nH]4)c(-c4ccc(C(=O)O)cc4)c4nc(c(-c5ccc(C(=O)O)cc5)c5ccc2[nH]5)C=C4)C=C3)cc1.[Cu+2]` [Cu–TCPP, copper (II) meso-tetra (4-carboxyphenyl)porphyrin], the “IC50 α-amylase” value on α-amylase [1] was 245.04 ± 0.26 µg/mL. Also, the “IC50 α-GLU” value against α-glucosidase [2] worked out at 25.33 ± 0.55 µg/mL. The Km on α-glucosidase [3] is 3.3657 ± 0.0431 µg/mL and 3.8284 ± 0.1475 µg/mL and 4.7824 ± 0.1009 µg/mL and 5.4948 ± 0.1841 µg/mL and 6.4626 ± 0.1103 µg/mL. Further, the Vmax on α-glucosidase [3] (C 5 μg/mL) is given as 0.1496 ± 0.0019 ΔOD/min; at α-glucosidase [3] (C 10 μg/mL) it was 0.1344 ± 0.0052 ΔOD/min; on α-glucosidase [3] (C 25 μg/mL), 0.1028 ± 0.0022 ΔOD/min; on α-glucosidase [3] (C 50 μg/mL), 0.0718 ± 0.0024 ΔOD/min; on α-glucosidase [3] (C 100 μg/mL), 0.0473 ± 0.0008 ΔOD/min. The “type of inhibition of α-glucosidase” value at α-glucosidase [3] (Lineweaver–Burk plots) is “mixed type”. The “reversibility of inhibition of α-glucosidase” value at α-glucosidase [3] (enzyme 100–400 U/L, substrate 5 mmol/L) was “reversible inhibition”. On α-glucosidase [3] (enzyme–substrate complex inhibition constant), this compound registered a Kis of 38.9429 ± 0.1021 µg/mL. At α-glucosidase [3] (free enzyme inhibition constant), this compound gave a Ki of 13.7332 ± 0.0823 µg/mL. Besides, the “thermal stability: inhibition rate against α-amylase” value at α-amylase [4] is recorded as “small fluctuations”. The “thermal stability: inhibition rate against α-glucosidase” value at α-glucosidase [5] is “remained relatively stable”. For the same compound, the “Peak 1 Fluorescence Intensity” value at α-amylase [6] was 313.1. Further, the “Peak 2 Fluorescence Intensity” value at α-amylase [6] is recorded as 16.48. Besides, the “cell viability (survival rate)” value with HepG2 cells (HepG2, 200 μg/mL) was found to be 43.13 ± 5.53%. In the data set with HepG2 cells (HepG2, 50–100 μg/mL), the cell viability entry is given as “above 80%”.

The term Km denotes the concentration of substrate that gives half-maximal velocity. Broadly, the Ki is the dissociation constant of the complex between target and ligand, obtained from inhibition or displacement. Low readings indicate higher affinity, high ones lower affinity.
